# Reference: US9872903B2, “Targeting thymidine kinase photosensitizer and pharmaceutical composition and use for cancer treatment thereof” (ZHEJIANG HISUN PHARMACEUTICAL CO., LTD., priority 2012, dated 2018)
# Legend:
# tumor cells of PC3 line = experiment: in vivo therapeutic effect of PDT in tumor-bearing Scid mice; details: 665 nm; for curative ratio: photosensitizer 0.5 μmol/kg i.v., light 24 h later, 135 J/cm^2, 75 mW/cm^2, 60 days, 10 mice; for mice with no tumor relapse observed after 60 days: photosensitizer 0.5 μmol/kg, 135 J/cm^2, 75 mW/cm^2
# Procedure: Procedure: subcutaneous injection of 3×10^5 tumor cells were performed to the mice, and the cells were allowed to grow so that the diameter can reach 4-5 mm. The hairs at the inoculation site were shaved one day before laser irradiation, and the photosensitizer at various concentrations was intravenously injected to the mice. The mice were not anesthetized, and were limited in a plastic circle 24 h after photosensitizer injection (such as Compound 1 or 3). Subsequently, light treatment was performed after the emission wavelength was tuned to the activation wavelength of the drug using an argon-pumped dye laser monochromes, wherein paclitaxel was additionally injected 8 h before exposure in the combination therapy group. The parameters involved in the therapy included a diameter of 1 cm^2, fluence rate of 75 mW/cm^2 and total light dosage of 135 J/cm^2.
# If tumor growth was observed, two perpendicular values L and W (perpendicular to L) were used for the detection, and the volume of tumor can be calculated according to the equation V=(L×W^2)/2. If no evidence for regeneration can be observed 60 days after PDT therapy, the mice can be considered as cured. There were 10 mice in each group at each concentration.
# The dosages of HPPH and HPPH-thymidine conjugate used in this experiment were both 0.5 μmol/kg. The single dosage of paclitaxel for additional injection 8 h before exposure was 35 mg/kg. The irradiation parameters included 665 nm, 135 J/cm^2, and 75 mW/cm^2. The curative ratio can be simply calculated based on the equation: number of mice without tumor regeneration×100%/total number of mice. For example, 60 days after administration of Compound 3, i.e., HPPH-thymidine conjugate of the present invention, there were 5 mice without tumor regeneration, and there were totally 10 mice in each group. Accordingly, the curative ratio is 5×100%/10, i.e., 50%.
# PC3 cell line [1] = experiment: in vitro light-induced cytotoxicity test (PDT, MTT assay); type: cell-based, human; details: for survival rate: Pharmaceutical 3 0.003 μM
# Procedure: In the present invention, the in vitro therapeutic effect of PDT was compared among HPPH, HPPH-thymidine conjugate and HPPH-thymidine conjugate in combination with chemotherapeutic agent paclitaxel in an in vitro light-induced cytotoxicity test.
# Procedure: in this Example, a highly metastatic and […] prostatic cancer cell, PC3 cell line, was selected. The PC3 cells were cultured in RPMI 1640 medium supplemented with 10% fetal bovine serum, L-glutamine, penicillin, and streptomycin at 37° C., 5% CO2 and 95% air, and 100% humidity. Subsequently, the PC3 cells were inoculated in the complete medium in a 96-well plate at the density of 5×10^3 cell/well with 6 multiple wells arranged. After cultured at 37° C. overnight, the cells were treated by the photosensitizer or paclitaxel at gradient concentrations in darkness for 24 h. For the treatment using HPPH-thymidine conjugate in combination with paclitaxel, paclitaxel was additionally injected 8 h before exposure, and the concentrations of paclitaxel and the photosensitizer were the same as above.
# After the pharmaceutical-containing medium was replaced by fresh medium, the cells were irradiated by light at 665 nm and with a dosage rate of 3.2 mW/cm^2 using an argon-pumped dye laser.
# After treated by PDT or paclitaxel alone, the cells were cultured for 48 h at 37° C. in darkness. The phototoxicity was determined by MTT assay (by comparison of the survival rate between the test cells and the untreated cells). The dosage-response survival curve was also plotted. In the Figures, the value was the average of 3 independent experiments, and the error bar stood for standard deviation. In each treatment, the concentration of Compound 3, i.e., HPPH-thymidine conjugate, was 0.06 μM, and the concentration of Compound 1, i.e., HPPH, was 0.06 μM, and the concentration of paclitaxel was 2 nM.
# [2] = test system: PC-3 (human prostatic cancer) cell line; experiment: in vitro light cytotoxicity test of PDT at 675 nm or 703 nm (MTT); type: cell-based
# Procedure: The in vitro therapeutic effect of PDT was compared among the following compounds in PC-3 (human prostatic cancer) cell line by in vitro light cytotoxicity test. The procedure was the same as that in Example 4. Briefly, PC3 cells were coated onto the wells of a 96-well plate and adhered for 6-24 h. Subsequently, the cells were treated by the PDT photosensitizer at various concentrations for 24 h, followed by irradiation at 675 nm (dose rate of 3.2 mW/cm^2) or 703 nm (dose rate of 3.2 mW/cm^2) using various high dosages. After 48 h, the cell growth was evaluated by colorimetry, wherein the insoluble formazan product generated in MTT method was dissolved and its concentration was detected at 570 nm through optical density.
# The results of the treatment at 675 nm were shown in FIG. 4, wherein PLH-14 was Compound 5 in Example 2, and PLH-13 was Compound 6, i.e., thymidine conjugate of Compound 5, in Example 2. The concentration of both PLH-13 and PLH-14 was 0.1 μM. The results of the treatment at 703 nm were shown in FIG. 5, wherein 277-COOH was Compound 7 in Example 3, and PLH-12 was Compound 8, i.e., thymidine conjugate of Compound 7, in Example 3. The concentration of both 277-COOH and PLH-12 was 0.05 μM. As shown in FIG. 4 and FIG. 5, the in vitro therapeutic effect of PDT using the photosensitizer was enhanced by conjugation of Compound 5, […] Compound 7 with thymidine.
# PC3 cell line [3] = experiment: morphology change by DAPI staining; type: cell-based, human; details: paclitaxel pretreatment
molecule,measurement,setting,value
"CCCCCCOC(C)c1c(C)c2cc3nc(c4c5[nH]c(cc6nc(cc1[nH]2)C(C)=C6CC)c(C)c5C(=O)C4)C(CCC(=O)OCC1OC(n2cc(C)c(=O)[nH]c2=O)CC1O)C3C (centres unmarked) [Compound 3, 17^3-thymidylyl-3-((1′-n-hexyloxy)ethyl)-3-devinyl-pyropheophorbide]",curative ratio,tumor cells of PC3 line,50%
same,mice with no tumor relapse observed after 60 days,tumor cells of PC3 line,5/10
same,light dosage of IC50,"PC3 cell line [1]; PDT with Compound 3 0.06 μM alone, 665 nm, 3.2 mW/cm^2, MTT after 48 h",0.13 J/cm^2
same,survival rate,"PC3 cell line [1]; light dosage 0.25 J/cm^2, before action of paclitaxel",100%
same,survival rate,"PC3 cell line [1]; light dosage 0.25 J/cm^2, under the action of paclitaxel (0.000704)",80%
same,"in vitro therapeutic effect of PDT (cell survival vs light dosage, FIG. 3)","PC3 cell line [1]; photosensitizer 0.06 μM, paclitaxel 2 nM, 665 nm",higher than that using HPPH
"2-((1′-n-hexyloxy)ethyl)-2-devinyl-pyropheophorbide-α [Compound 1, reference compound]",curative ratio,tumor cells of PC3 line,30%
same,mice with no tumor relapse observed after 60 days,tumor cells of PC3 line,3/10
"CCCCCCOC(C)c1c(C)c2[nH]c1cc1nc(cc3[nH]c4c(c5nc(c2-c2ccc(C(=O)OCC6OC(n7cc(C)c(=O)[nH]c7=O)CC6O)cc2)C(C)C5CCC(=O)OCC2OC(n5cc(C)c(=O)[nH]c5=O)CC2O)CC(=O)c4c3C)C(CC)=C1C (centres unmarked) [Compound 6, 17^3-thymidylyl-20-(4-thymidylyloxycarbonyl)phenyl-3-((1′-n-hexyloxy)ethyl)-3-devinyl-pyro pheophorbide]","in vitro therapeutic effect of PDT (percentage of control growth, FIG. 4)","[2]; 675 nm, 3.2 mW/cm^2, 0.1 μM, compared with unconjugated PLH-14 (Compound 5)",enhanced
CCCCOC(C)c1c(C)c2cc3nc(c4c5[nH]c(cc6nc(cc1[nH]2)C(C)=C6CC)c(C)c5C(=O)N(CCCC)C4=O)C(CCC(=O)OCC1OC(n2cc(C)c(=O)[nH]c2=O)CC1O)C3C (centres unmarked) [Compound 8],"in vitro therapeutic effect of PDT (relative growth rate, FIG. 5)","[2]; 703 nm, 3.2 mW/cm^2, 0.05 μM, compared with unconjugated 277-COOH (Compound 7)",enhanced
CC(=O)O[C@H]1C(=O)[C@@]2(C)[C@H]([C@H](OC(=O)c3ccccc3)[C@]3(O)C[C@H](OC(=O)[C@H](O)[C@@H](NC(=O)c4ccccc4)c4ccccc4)C(C)=C1C3(C)C)[C@]1(OC(C)=O)CO[C@@H]1C[C@@H]2O [paclitaxel],mechanism of cell death,PC3 cell line [3],apoptosis mechanism
